Experimental data: patent US8143212B2 (Vicuron Pharmaceuticals Inc., priority 2002, dated 2012)

What was measured:
[1] = system: panel of gram-positive bacteria; test: MIC by broth microdilution (NCCLS) of IsoB0 and reference compounds (Table 44); assay type: cell-based
Method: Müller Hinton broth (Difco Laboratories, Detroit, Mich., USA) adjusted with CaCl2 and MgCl2 to a final concentrations of 20 mg/L and 10 mg/L respectively.
The microorganisms used are reference standard strains from the American Type Culture Collection (ATCC, Rockville, USA), Smith Kline and French Laboratories (SKF) and the Upjohn Company (UC, Kalamazoo, Mich., USA).
(§1) MICs were determined by the broth microdilution methodology following the standard NCCLS procedure, with or without 30% bovine serum, using bacterial inocula of approximately 5×10^5 CFU/mL. Tests were read after 20-24 h incubation at 35° C.

gram positive bacteria = test: MIC by broth microdilution (NCCLS), with or without 30% bovine serum (Table 42); assay type: cell-based
Method: (§2) Before dissolution, each sample was analyzed by HPLC and quantified.
(§3) The microorganisms used were reference strains obtained from the American Type Culture Collection (ATCC) (Rockville, Md.), SmithKline and French Laboratories (SKF), and the Upjohn Company (UC) (Kalamazoo, Mich.).
(§4) MICs were determined by the broth microdilution methodology following the standard NCCLS procedure (NCCLS Document M7-A6, Vol. 23, No. 2, “Methods for dilution antimicrobial susceptibility tests for bacteria that grow aerobically.” Approved Guideline. January 2003, which can be herein incorporated by reference in its entirety), with or without 30% adult bovine serum (BS) (PAA Laboratories GMBH, Haidmannweg Pasching Austria), using bacterial innocula at approximately 5×10^5 CFU/ml. The media employed included cation-adjusted Müller Hinton broth (Difco Laboratories, Detroit, Mich.) that was used that was adjusted with CaCl2 and MgCl2 to a final concentration of 20 mg/L and 10 mg/L, respectively. Tests were read following 20-24 hours of incubation at 35° C.

[2] = system: Escherichia coli, Proteus vulgaris, Pseudomonas aeruginosas; test: MIC by broth microdilution (NCCLS) of IsoB0 and reference compounds (Table 44), non-gram-positive bacterial strains; assay type: cell-based
Method: as §1

gram-negative bacteria [3] = settings: E. coli ATCC25922 ref. strain; NCCLS M100 S-12; cited from earlier work
[4] = system: Candida albicans SKF 2270; test: MIC by broth microdilution (NCCLS) (Tables 42, 44); assay type: cell-based
gram-negative bacteria [5] = test: MIC by broth microdilution (NCCLS) (Table 42); assay type: cell-based
Method: as §2, §3, §4

[6] = E. faecalis ATCC29212 ref. strain
[7] = Enterococcus faecalis ATCC 7080
[8] = S. aureus ATCC 29213 ref. strain
[9] = Staphylococcus aureus Smith ATCC 19636
[10] = Pseudomonas aeruginosas ATCC 10145

Gentamycin [reference compound]
MIC ([1]; Bacillus subtilis ATCC 6633): 0.25 µg/mL | MIC [1, 6]: 32 µg/mL | MIC [1, 7]: 8 µg/mL | MIC [1, 8]: 8 µg/mL | MIC ([1]; S. aureus Smith + 30% BS): ≦0.125 mg/L | MIC ([1]; S. epidermidis ATCC 12228): ≦0.125 mg/L | MIC ([1]; S. pneumoniae Felton UC41): 8 µg/mL | MIC [1, 9]: 0.5 µg/mL | MIC ([1]; Streptococcus pyogenes SKF13400): 4 µg/mL | MIC (gram positive bacteria; Bacillus subtilis ATCC 6633): 0.25 µg/mL | MIC (gram positive bacteria; [6]): 32 µg/mL | MIC (gram positive bacteria; [7]): 8 µg/mL | MIC (gram positive bacteria; [8]): 8 µg/mL | MIC (gram positive bacteria; S. aureus Smith + 30% BS): ≦0.125 mg/L | MIC (gram positive bacteria; S. epidermidis ATCC 12228): ≦0.125 mg/L | MIC (gram positive bacteria; S. pneumoniae Felton UC41): 8 µg/mL | MIC (gram positive bacteria; [9]): 0.5 µg/mL | MIC (gram positive bacteria; Streptococcus pyrogenes SKF 13400): 4 µg/mL | MIC ([2]; E. coli ATCC25922 ref. strain): 1 µg/mL | MIC ([2]; Escherichia coli SKF 12140): 2 µg/mL | MIC ([2]; Proteus vulgaris ATCC 881): 2 µg/mL | MIC [2, 10]: 1 µg/mL | Quality control range of MICs for reference strains (gram-negative bacteria [3]): ^3GE 0.25-1 mg/L | MIC ([4]; Candida albicans SKF 2270 (Table 42)): >128 µg/mL | MIC ([4]; Candida albicans SKF2270 (Table 44)): >128 µg/mL | MIC (gram-negative bacteria [5]; E. coli ATCC25922 ref. strain): 1 µg/mL | MIC (gram-negative bacteria [5]; Escherichia coli SKF 12140): 2 µg/mL | MIC (gram-negative bacteria [5]; Proteus vulgaris ATCC 881): 2 µg/mL | MIC (gram-negative bacteria [5]; [10]): 1 µg/mL
